Measured values taken from patent US20140121216A1, “INDOLEAMINE DERIVATIVES FOR THE TREATMENT OF CENTRAL NERVOUS SYSTEM DISEASES” (Adamed Sp. z o.o., priority 2011, published 2014).

Tests used:
[1] = target: T1, human recombinant D3 receptors (Homo sapiens, UniProt P35462); experiment: Binding assay, dopaminergic D3 receptor ([3H]methylspiperone); settings: read-out: Inhibition constant Ki D3
T1 construct: purchased PerkinElmer
Description: (§1) Moreover, ability of the compounds of the invention to block potassium channel hERG was tested.
(§2) The specific ligand binding to the receptors is defined as the difference between the total binding and the non-specific binding determined in the presence of an excess of unlabelled ligand.
(§3) The inhibition constants (Ki) were calculated using the Cheng Prusoff equation (Ki=IC50/(1+(L/KD)), where L=concentration of radioligand in the assay, and KD=affinity of the radioligand for the receptor). A Scatchard plot is used to determine the Kd. The IC50 values (concentration causing a half-maximal inhibition of control specific binding) and Hill coefficients (nH) were determined by non-linear regression analysis of the competition curves generated with mean replicate values using Hill equation curve fitting (Y=D+[(A−D)/(1+(C/C50)^nH)], where Y=specific binding, D=minimum specific binding, A=maximum specific binding, C=compound concentration, C50=IC50, and nH=slope factor).

[2] = target: T2, 5-HT1A receptor (rat hippocampus) (Rattus norvegicus, UniProt P19327); experiment: Binding assay, 5-HT1A receptor ([3H]8-OH-DPAT); settings: read-out: Inhibition constant Ki 5-HT1A
T2 construct: hippocampus; from tissue; host or cells: rat hippocampus
T2 sequence (P19327 1-422): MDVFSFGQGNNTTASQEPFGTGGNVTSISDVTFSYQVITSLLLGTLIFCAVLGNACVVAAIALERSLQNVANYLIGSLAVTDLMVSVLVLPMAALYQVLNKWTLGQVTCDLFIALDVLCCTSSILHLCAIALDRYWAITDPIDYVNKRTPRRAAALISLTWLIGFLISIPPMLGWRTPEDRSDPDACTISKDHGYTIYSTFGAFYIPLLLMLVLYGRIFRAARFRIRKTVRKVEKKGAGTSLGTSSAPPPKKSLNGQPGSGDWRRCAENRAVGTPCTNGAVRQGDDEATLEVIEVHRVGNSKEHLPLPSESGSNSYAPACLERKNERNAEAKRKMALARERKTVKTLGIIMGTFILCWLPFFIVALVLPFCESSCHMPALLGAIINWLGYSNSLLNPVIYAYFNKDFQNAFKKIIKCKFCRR
Description: as §1, §2, §3

[3] = target: T3, 5-HT6 receptor, human recombinant (Homo sapiens, UniProt P50406); experiment: Binding assay, 5-HT6 receptor ([3H]LSD); settings: read-out: Inhibition constant Ki 5-HT6
T3 construct: purchased PerkinElmer
T3 sequence (P50406 whole entry): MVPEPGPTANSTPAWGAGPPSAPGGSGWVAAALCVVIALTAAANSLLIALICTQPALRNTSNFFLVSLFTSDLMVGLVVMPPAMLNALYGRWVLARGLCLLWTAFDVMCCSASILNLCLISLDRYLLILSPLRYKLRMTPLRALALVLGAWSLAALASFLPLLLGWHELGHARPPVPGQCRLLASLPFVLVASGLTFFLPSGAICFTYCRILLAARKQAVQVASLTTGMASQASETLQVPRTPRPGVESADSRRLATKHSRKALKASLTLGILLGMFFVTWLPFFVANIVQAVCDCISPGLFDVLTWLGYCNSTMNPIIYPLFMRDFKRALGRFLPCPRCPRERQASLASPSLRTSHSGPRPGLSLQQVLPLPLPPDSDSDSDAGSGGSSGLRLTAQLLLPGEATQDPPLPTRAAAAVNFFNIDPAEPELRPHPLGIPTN
Description: as §1, §2, §3

[4] = system: α1 adrenergic receptors (rat cerebral cortex); experiment: Binding assay, α1 adrenergic receptor ([3H]prazosin); settings: for α1 [%] affinity test result: compound 1×10^−6 M; for Ki: read-out: Inhibition constant Ki α1
Description: as §2
as §3, with “factor). This analysis was performed using a software developed at Cerep (Hill software) and validated by comparison with data generated by the commercial software SigmaPlot® 4.0 for Windows® (©1997 by SPSS Inc.).” for “factor).”
Experimental conditions for tests are given in Table 7, and results of tests for representative compounds are given in Tables 8a and 8b (α1 receptors) and in Tables 9a and 9b (α2C receptors).

[5] = system: σ receptors (rat cerebral cortex); experiment: Binding assay, σ receptors ([3H]DTG); settings: compound 1×10^−6 M
Description: as §1, §2
as §3, with “factor). This analysis was performed using a software developed at Cerep (Hill software) and validated by comparison with data generated by the commercial software SigmaPlot® 4.0 for Windows® (©1997 by SPSS Inc.).” for “factor).”
Experimental conditions for tests are given in Table 14, and results of tests for representative compounds are given in Table 15a and 15b.

[6] = target: T4, hERG potassium channels (KCNH2 gene, expressed in CHO cells) (Homo sapiens, UniProt Q12809); experiment: Ability to block hERG potassium channel, electrophysiology (IonWorks Quattro); type: cell-based; settings: for hERG [%] (% block of hERG current): compound 1×10^−5 M; for Ki: read-out: Inhibition constants Ki for hERG potassium channels (column head H1 [nM])
T4 construct: expressed in transfected cells; host or cells: CHO cells
T4 sequence (Q12809 whole entry): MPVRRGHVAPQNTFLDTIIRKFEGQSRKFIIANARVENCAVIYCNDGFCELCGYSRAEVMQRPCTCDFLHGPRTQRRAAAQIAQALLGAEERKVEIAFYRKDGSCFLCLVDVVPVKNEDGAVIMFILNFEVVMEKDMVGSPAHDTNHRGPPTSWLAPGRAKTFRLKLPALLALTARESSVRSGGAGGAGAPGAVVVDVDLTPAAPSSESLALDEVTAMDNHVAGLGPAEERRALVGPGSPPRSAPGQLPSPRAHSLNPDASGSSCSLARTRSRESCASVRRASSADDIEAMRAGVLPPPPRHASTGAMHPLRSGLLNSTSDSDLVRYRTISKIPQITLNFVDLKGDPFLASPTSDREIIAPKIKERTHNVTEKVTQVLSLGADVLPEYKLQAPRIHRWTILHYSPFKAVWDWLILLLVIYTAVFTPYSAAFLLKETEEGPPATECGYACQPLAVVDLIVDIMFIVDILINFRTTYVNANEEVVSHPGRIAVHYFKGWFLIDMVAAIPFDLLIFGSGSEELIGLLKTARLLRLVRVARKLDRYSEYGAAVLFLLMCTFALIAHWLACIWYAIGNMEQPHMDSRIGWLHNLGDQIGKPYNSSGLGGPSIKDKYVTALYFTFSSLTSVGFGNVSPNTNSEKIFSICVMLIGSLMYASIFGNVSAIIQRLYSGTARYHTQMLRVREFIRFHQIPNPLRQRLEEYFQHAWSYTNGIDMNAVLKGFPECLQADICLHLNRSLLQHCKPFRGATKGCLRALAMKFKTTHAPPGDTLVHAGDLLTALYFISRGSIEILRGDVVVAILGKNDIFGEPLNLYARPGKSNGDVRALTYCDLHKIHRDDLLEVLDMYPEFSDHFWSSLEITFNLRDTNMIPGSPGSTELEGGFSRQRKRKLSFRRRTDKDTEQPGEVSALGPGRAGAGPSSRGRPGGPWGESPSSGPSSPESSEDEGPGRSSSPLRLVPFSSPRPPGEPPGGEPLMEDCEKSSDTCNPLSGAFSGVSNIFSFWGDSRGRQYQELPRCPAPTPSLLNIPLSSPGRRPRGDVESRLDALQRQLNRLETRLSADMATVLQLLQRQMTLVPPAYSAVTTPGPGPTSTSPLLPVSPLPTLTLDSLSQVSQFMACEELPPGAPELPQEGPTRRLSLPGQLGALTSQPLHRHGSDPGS
Description: Ability to block hERG potassium channels was determined using the electrophysiological method and cloned hERG potassium channels (KCNH2 gene, expressed in CHO cells) as biological material. The effects were evaluated using IonWorks™ Quattro system (MDS-AT).
hERG current was elicited using a pulse pattern with fixed amplitudes (conditioning prepulse: −80 mV for 25 ms; test pulse: +40 mV for 80 ms) from a holding potential of 0 mV. hERG current was measured as a difference between the peak current at 1 ms after the test step to +40 mV and the steady-state current at the end of the step to +40 mV.
Data acquisition and analyses were performed using the IonWorks Quattro™ system operation software (version 2.0.2; Molecular Devices Corporation, Union City, Calif.). Data were corrected for leak current.
The hERG block was calculated as: % Block=(1−ITA/IControl)×100%, where IControl and ITA were the currents elicited by the test pulse in control and in the presence of a test compound, respectively.

[7] = target: 5-HT2A receptor, human recombinant (Homo sapiens, UniProt P28223); experiment: Binding assay, 5-HT2A receptor ([3H]ketanserin); set-up: purchased PerkinElmer; settings: read-out: Inhibition constant Ki 5-HT2A
5-HT2A receptor, human recombinant, sequence (P28223 whole entry): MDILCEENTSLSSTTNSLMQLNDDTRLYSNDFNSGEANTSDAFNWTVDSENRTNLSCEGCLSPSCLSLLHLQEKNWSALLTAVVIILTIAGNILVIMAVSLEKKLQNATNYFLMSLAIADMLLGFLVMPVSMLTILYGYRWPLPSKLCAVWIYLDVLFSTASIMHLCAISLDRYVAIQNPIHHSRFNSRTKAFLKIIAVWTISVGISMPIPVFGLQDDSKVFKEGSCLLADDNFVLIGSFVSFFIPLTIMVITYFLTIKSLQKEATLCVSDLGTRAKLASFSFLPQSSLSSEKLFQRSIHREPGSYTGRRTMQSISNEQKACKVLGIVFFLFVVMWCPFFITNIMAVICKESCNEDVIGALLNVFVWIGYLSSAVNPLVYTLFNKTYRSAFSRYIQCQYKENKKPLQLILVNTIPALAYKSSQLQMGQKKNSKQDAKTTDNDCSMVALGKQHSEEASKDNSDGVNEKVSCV
Description: as §1, §2, §3

[8] = target: T5, 5-HT7 receptor, human recombinant (Homo sapiens, UniProt P34969); experiment: Binding assay, 5-HT7 receptor ([3H]LSD); settings: read-out: Inhibition constant Ki 5-HT7
T5 construct: purchased PerkinElmer
T5 sequence (P34969 whole entry): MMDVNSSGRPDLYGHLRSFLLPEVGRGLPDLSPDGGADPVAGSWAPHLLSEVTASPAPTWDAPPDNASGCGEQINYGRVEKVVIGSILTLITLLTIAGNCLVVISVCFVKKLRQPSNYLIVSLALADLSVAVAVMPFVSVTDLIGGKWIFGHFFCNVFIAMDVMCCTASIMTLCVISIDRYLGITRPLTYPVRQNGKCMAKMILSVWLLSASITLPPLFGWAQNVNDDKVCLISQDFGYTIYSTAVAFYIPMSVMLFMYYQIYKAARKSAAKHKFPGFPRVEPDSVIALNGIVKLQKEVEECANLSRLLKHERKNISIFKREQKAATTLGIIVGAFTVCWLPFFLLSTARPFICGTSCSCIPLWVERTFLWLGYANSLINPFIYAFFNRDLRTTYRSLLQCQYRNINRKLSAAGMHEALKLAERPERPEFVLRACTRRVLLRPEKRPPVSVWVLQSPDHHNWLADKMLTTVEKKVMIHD
Description: as §1, §2, §3

[9] = target: T6, 5-HT2A (h), human recombinant (HEK-293 cells) (Homo sapiens, UniProt P28223); experiment: Cellular functional assay 5-HT2A (h) agonism; type: cell-based; settings: compound 1×10^−6 M; control 10 μM serotonin
T6 construct: expressed in transfected cells; host or cells: HEK-293 cells
T6 sequence (P28223 whole entry): as the sequence (P28223 whole entry) above
Description: The results are expressed as a percent of control specific agonist response ((measured specific response/control specific agonist response)×100) obtained in the presence of tested compound.
The EC50 values (concentration producing a half-maximal specific response) and IC50 values (concentration causing a half-maximal inhibition of the control specific agonist response) were determined by non-linear regression analysis of the concentration-response curves generated with mean replicate values using Hill equation curve fitting (Y=D+[(A−D)/(1+(C/C50)nH)], where Y=specific response, D=minimum specific response, A=maximum specific response, C=compound concentration, and C50=EC50 or IC50, and nH=slope factor).
For the antagonists, the apparent dissociation constants (Kb) were calculated using the modified Cheng Prusoff equation (Kb=IC50/(1+(A/EC50A)), where A=concentration of reference agonist in the assay, and EC50A=EC50 value of the reference agonist).

T1 sequence (P35462 whole entry): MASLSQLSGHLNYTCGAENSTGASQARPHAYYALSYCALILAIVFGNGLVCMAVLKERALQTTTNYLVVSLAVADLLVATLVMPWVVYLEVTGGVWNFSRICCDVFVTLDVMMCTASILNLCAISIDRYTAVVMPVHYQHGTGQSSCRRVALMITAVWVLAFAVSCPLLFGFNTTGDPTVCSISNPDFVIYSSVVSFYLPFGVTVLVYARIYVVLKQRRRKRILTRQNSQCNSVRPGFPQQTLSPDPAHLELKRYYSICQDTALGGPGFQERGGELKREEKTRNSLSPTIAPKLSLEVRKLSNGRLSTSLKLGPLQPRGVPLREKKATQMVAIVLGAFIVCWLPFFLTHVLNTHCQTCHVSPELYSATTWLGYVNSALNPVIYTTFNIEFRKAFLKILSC

Row | Compound | Ki [1] [nM] | Ki [2] [nM] | Ki [3] [nM] | α1 [%] affinity test result [4] [%] | Ki [4] [nM] | σ [%] affinity test result [5] [%] | hERG [%] (% block of hERG current) [6] | Ki [6] [nM] | Ki [7] [nM] | Ki [8] [nM] | 5-HT2A-ag [%] [9] [%]
1 | O=C1CCc2ccc(OCCCN3CCN(c4cccc5c4ccn5S(=O)(=O)c4ccccc4)CC3)cc2N1 [Compound 23, 7-[3-[4-[1-(Benzensulphonyl)indol-4-yl]piperazin-1-yl]propoxy]-3,4-dihydro-1H-quinolin-2-one] | 3.4 | 6.2 | 2.1 | 55 | 290 | 13 | 7 | > 10000 | 170 |  | 
2 | O=C1CCc2ccc(OCCCCN3CCN(c4cccc5c4ccn5S(=O)(=O)c4ccccc4)CC3)cc2N1 [Compound 24, 7-(4-(4-(1-(Phenylsulphonyl)-1H-indol-4-yl)piperazin-1-yl)butoxy)-3,4-dihydroquinolin-2(1H)-one] | 0.81 | 1.2 | 0.35 | 92 | 22 | 57 | 9 | > 10000 | 3.2 | 67 | 
3 | O=C1CCc2ccc(OCCCCN3CCN(c4cccc5c4ccn5Cc4cccc(F)c4)CC3)cc2N1 [Compound 63, 7-[4-[4-[1-[(3-Fluorophenyl)methyl]indol-4-yl]piperazin-1-yl]butoxy]-3,4-dihydro-1H-quinolin-2-one] |  |  |  | 86 |  |  |  |  |  |  | 6
4 | O=C1CCc2ccc(OCCCN3CCN(c4cccc5c4ccn5Cc4ccccc4)CC3)cc2N1 [Compound 4, 7-[3-[4-(1-Benzylindol-4-yl)piperazin-1-yl]propoxy]-3,4-dihydro-1H-quinolin-2-one] |  |  |  | 68 |  | 45 | 27 |  |  |  | 2
5 | O=C1CCc2ccc(OCCCCN3CCN(c4cccc5c4ccn5Cc4ccccc4)CC3)cc2N1 [Compound 5, 7-(4-(4-(1-Benzyl-1H-indol-4-yl)piperazin-1-yl)butoxy)-3,4-dihydroquinolin-2(1H)-one] |  |  |  | 88 |  | 52 | 30 |  |  |  | 8
6 | O=C1CCc2ccc(OCCCCN3CCN(c4cccc5c4ccn5Cc4cccc(Cl)c4)CC3)cc2N1 [Compound 67, 7-[4-[4-[1-[(3-Chlorophenyl)methyl]indol-4-yl]piperazin-1-yl]butoxy]-3,4-dihydro-1H-quinolin-2-one] |  | 7 |  |  |  |  |  |  |  |  | 4
7 | NC(=O)c1ccccc1OCCCN1CCN(c2cccc3c2ccn3S(=O)(=O)c2ccccc2)CC1 [Compound 72, 2-[3-[4-[1-(Benzenesulfonyl)indol-4-yl]piperazin-1-yl]propoxy]-benzamide] |  | 3.9 | 0.31 |  |  |  |  |  | 18 |  | 2
